SMILES strings stand for the structures.

We go through 1 compound from patent publication US20090232735A1, “USE OF FRUCTOSE-BASED THERAPIES FOR THE TREATMENT OF CANCER” (CEDARS-SINAI MEDICAL CENTER, priority 2005, published 2009).

Assay [1] deals with PANC-1 pancreatic cancer cells. The assay can be described thus: [1,2-13C2] stable isotope metabolic profiling in PANC-1 cells. The format is cell-based, human. On the procedure: FIG. 28 depicts the metabolism of fructose and glucose in pancreatic cancer cells in accordance with an embodiment of the present invention. Lactate generation from glycolysis (a), and hexose oxidation in the pentose and tricarboxylic acid cycles (b) following treatment of PANC-1 cells with 2 mM glucose, 5.5 mM glucose, and 5.5 mM fructose for 72 h. […] In (b), the ^13C to ^12C ratio in the CO2 released from the PANC-1 cells is presented.
FIG. 29 depicts fatty acid synthesis from glucose versus fructose in accordance with an embodiment of the present invention. Fatty acid synthesis represented by (a), ^13C-labelled oleate, (b) ^13C-labelled arachidic acid, and (c) ^13C-labelled 24-carbon fatty acid fraction following treatment of PANC-1 cells with 2 mM, and 5.5 mM glucose, and 5.5 mM fructose for 72 h. For the fatty acids, the fraction of ^13C-labeled oleate, arachidic acid or 24-carbon fatty acid is expressed as percentage of total oleate, arachidic acid or 24-carbon fatty acids, respectively.
FIG. 30 depicts ribose and deoxyribose synthesis following glucose and fructose treatment in accordance with an embodiment of the present invention.
Metabolism comprises anabolic (converting small molecules into big ones) and catabolic processes (converting food into useful energy), predicts the functional state of a cell, and analyzes the levels of the end products (metabolites) of anabolism and catabolism. […] The inventors employed [1, 2-^13C2] glucose, or [1,2-^13C2] fructose stable isotope-based dynamic metabolic profiling (SiDMAP, Los Angeles, US) to track and quantify changes in glucose, and fructose carbon re-distribution among major metabolic pathways in pancreatic cancer cells (Lee W N, Boros L G, Puigjaner J, Bassilian S, Lim S, Cascante M. Mass istopomer study of transketolase-transaldolase pathways of the pentose cycle with [1,2-^13C2]glucose. Am J Physiol 274:E843-51, 1998; Lee W N, Byerley L O, Bassilian S, Ajie H O, Clark I, Edmond J. Isotopomer study of lipogenesis in human hepatoma cells in culture: contribution of carbon and hydrogen atoms from glucose. […]

For assay [2], the system named is PANC-1 pancreatic cancer cells. The assay can be described thus: FACS cell cycle profile of PANC-1 cells. It is filed as cell-based, human. The settings on record: PANC-1, 5.5 mM sugar, 48 h. Here is the method:
FIG. 15 depicts in the G0/G1 phase and the DNA synthesis (S) phase of pancreatic cells in glucose and fructose in accordance with an embodiment of the present invention. PANC-1 cells were plated in 2, and 5.5 mM glucose or 5.5 mM fructose for 48 h, after which cells were fixed in methanol, nuclei were stained with propidium iodide, and aliquots subjected to FACS analyzes.
This first result intrigued the inventors, but given there is little documentation regarding physiological fructose concentrations, the inventors first considered that the “apparent” pro-proliferative effects of fructose were simply a consequence of the highly stylized in vitro experimental conditions, and that if the pancreatic cancer cells were cultured in higher glucose concentrations, this would result in similar proliferative rates to those the inventors observed following culture in 5.5 mM fructose. Therefore, in the next experiments, the inventors compared proliferative rates of the PANC-1 pancreatic cancer cells following culture for 72 h in a range of fructose, and glucose concentrations (2-25 mM). This timepoint was chosen as the inventors had seen maximal pancreatic cancer cell proliferation in 5.5 mM fructose at 72 h. […] While not wishing to be bound by any particular theory, the inventors believe that this latter finding may be because the PANC-1 cells are proliferating at close to maximal capacity by 72 h, once they are exposed to comparatively low fructose concentrations (5 mM). MTS assay was employed to measure pancreatic cancer cell proliferative rates, which utilizes mitochondrial oxidation to quantify cell proliferation. As the inventors were examining carbohydrate-mediated effects, the inventors considered the change observed in proliferative rates, as measured by this assay, simply reflected changes in mitochondrial oxidation. Therefore, two additional methods were utilized to examine proliferative rates following fructose-treatment. […]

`O=C(CO)[C@@H](O)[C@H](O)[C@H](O)CO` [fructose]: the “pentose phosphate shunt pathway used (oxidative G6PDH vs non-oxidative TKK)” value in assay [1] (PANC-1, 5.5 mM sugar, 72 h) is recorded as “preferentially metabolized by TKK”. In addition, in assay [1] (PANC-1, 13C-labeled sugar, 72 h), the “lactate and CO2 production lower for fructose in comparison to glucose” value is on record as 3-4 fold. Besides, the “13C-labeled sugar metabolized for fatty acid synthesis” value in assay [1] (PANC-1, 72 h, fructose compared to glucose) was “comparatively less”. Moreover, in assay [2], the “increase of cells in S-phase in comparison to 2 mM glucose” value is about 17%, the “percentage of cells in S-phase” value is 47% and the “percentage of cells in resting G0/G1” value stood at 21.2%.
